This test has as its system thrombocytes (platelet-rich plasma). The test can be described thus: Collagen-induced thrombocyte aggregation in platelet-rich plasma (aggregometry, PAP-8E). To be noted: for End point (FA) / Maximum aggregation (MA): substance 50 μM. The class given is cell-based, human. Here is the method:
The substances used, genistein, glu-glu, DMSO, ala-ala were provided by the company Sigma-Aldrich, Munich. For the measurement, the Platelet Aggregation Profiler Model PAP-8E of the company Bio/Data Corporation, an 8-channel aggregometer with a computerised digital curve creation, has been used.
After the taking of a blood sample from a large calibre vein in unbuffered citrate 10%, the whole blood which is achieved by this is centrifugated with about 1,500 RPM for 10 min. The platelet-rich plasma (PRP) which is achieved by this then has to rest for 45 min. at ambient temperature. At the same time, […] for the creation of the respective blank values is gained from the same sample with common centrifugation. For the measurement, cuvettes with a volume of 0.25 ml are used.
Stock solutions of the substances to be tested, including genistein as well as the peptides ala-ala and glu-glu which are used, are prepared in a ratio of 1 mg on 1 ml, genistein as well as the tested coupling products in DMSO, glu-glu and ala-ala in H2O.

Where [1] appears, read: collagen 1 μg/ml, listed as genistein.

For the molecule `O=c1c(-c2ccc(O)cc2)coc2cc(O)cc(O)c12` [Genistein, genistein], the “active concentration which starts to be effective” value (collagen-induced aggregation, own specification) worked out at 50 µM. The “aggregation of the platelets” value (genistein 50 μM, collagen 1 μg/ml, reference (no additive) 90%) was 82%. The molecule also displayed an aggregation (genistein 100 μM, collagen 1 μg/ml, reference (no additive) 90%) of 50%. In addition, the thrombocyte aggregation result (genistein 200 μM, collagen 1 μg/ml) is given as “almost completely inhibited”. Besides, where the note is “collagen 1 μg/ml”, the “End point (FA)” value was determined as 82% and the “Maximum aggregation (MA)” value turned out to be 85%. Besides, under setting [1], the “End point (FA)” value is given as 82% and the “Maximum aggregation (MA)” value is 85%.

The record behind these values is patent US20100048921A1, “PHARMACEUTICALLY ACTIVE COMPOUNDS” (priority 2007, published 2010).
